The values that follow come from patent US11952358B2, “Flavan-3-ol analogs and anti-inflammatory activity” (Hong Kong Baptist University, priority 2021, dated 2024).

One data set deals with LPS-stimulated RAW 264.7 cells. As to the kind of experiment: RNA-sequencing analysis with GO and KEGG enrichment. In kind it is cell-based, mouse. The following applies: 50 μM; vs LPS-stimulated group; KEGG-classified inflammation-related genes. As for the experimental part: RNA-sequencing analysis RAW 264.7 cells were treated with each flavan-3-ol (25, 50 μM) for 24 h followed by LPS (1 μg/mL) stimulation for another 2 h. Cells were collected and then directly prepared for cDNAs amplification and RNA-Seq library construction. Total RNA was isolated with TRIzol reagent from each group. A complementary DNA library was prepared and sequencing was performed according to the Illumina standard protocol developed by Suzhou GENEWIZ Biological Technology Co., Ltd. (https://www.genewiz.com). […] After filtering, reference genome and gene model annotation files were downloaded from a genome website browser (NCBI/UCSC/Ensembl). Indexes of the reference genome were built using Bowtie v2.0.6 and paired-end clean reads were aligned to the reference genome using TopHat v2.0.9. Bowtie was used for a BWT (Burrows-Wheeler Transformer) algorithm for mapping reads to the genome and Tophat can generate a database of splice junctions based on the gene model annotation file and thus achieve a better mapping result than other non-splice mapping tools. For the quantification of gene expression level, HTSeq V0.6.1 was used to count the read numbers mapped for each gene. The RPKM of each gene was calculated based on the gene read counts mapped to this gene. A differential expression analysis was performed using the DESeq R package (1.10.1). For clustering, the inventors clustered different samples to see the correlation using hierarchical clustering distance method with the function of heatmap, SOM (Self-organization mapping) and k means using silhouette coefficient to adapt the optimal classification with default parameter in R. The complete RNA-seq datasets in this manuscript captioned has been deposited at GEO database (http://www.ncbi.nlm.nih.gov/geo/) under accession ID GSE181052.
Gene ontology (GO) and KEGG enrichment analysis GO enrichment analysis of differentially expressed genes was implemented by the GOseq R Package, in which gene length bias was corrected. GO analysis was performed with the DAVID online tool (https://david.ncifcrf.gov/). Top GO categories were selected according to the P-values. Pathways of differentially expressed genes were analyzed by the KEGG database (http://www.kegg.jp/kegg/). The inventors used KOBAS software to test the statistical enrichment of differential expression genes in KEGG pathways.
RNA-seq analysis of downstream genes regulated by flavan-3-ols. […] RNA-seq analysis was performed to further study the effects of compounds 3m, 3o, 3p, 3ae and 3ag on gene transcriptional pathways related to inflammation. RAW 264.7 cells were used in the RNA-seq analysis, in which cells were pretreated with each compound (50 μM) for 24 h followed by LPS (1 μg/mL) stimulation for another 2 h. […] Next, the inventors focused on genes related to inflammatory reactions and inflammation-related diseases (inflammation-related genes) based on the gene and pathway classification of Kyoto Encyclopedia of Genes and Genomes (KEGG database).
To further analyze the functional distribution of differentially-expressed genes in relation to different biological processes, cellular components and molecular functions, gene ontology (GO) enrichment analysis was performed. The histogram of GO enrichment of differentially-expressed genes was presented.
Furthermore, to determine the biochemical metabolic pathways and signal transduction pathways involved in differentially expressed genes regulated by compound 3ag, KEGG pathway analysis was then performed.
Consider `O[C@H]1Cc2cc(Cl)ccc2O[C@@H]1c1ccccc1` [3ae, (2R,3S)-6-chloro-2-phenylchroman-3-ol], for which the inflammation-related genes downregulated entry is listed as “downregulated parts of inflammation-related genes”.
As to `O[C@H]1Cc2ccccc2O[C@@H]1c1ccc2ccccc2c1` [3m, (2R,3S)-2-(naphthalen-2-yl)chroman-3-ol], the inflammation-related genes downregulated entry is given as “downregulated parts of inflammation-related genes”.
Take `CCC[C@H]1Oc2ccccc2C[C@@H]1O` [3p, (2R,3S)-2-propylchroman-3-ol]: the inflammation-related genes downregulated entry is listed as “downregulated parts of inflammation-related genes”.

Tested on in another data set: not given
Assay: not given
Settings: not given
As a reminder, the melting point is the temperature, or range, at which the solid turns liquid. In the case of `O[C@H]1Cc2cc(Cl)ccc2O[C@@H]1c1ccccc1` [3ae, (2R,3S)-6-chloro-2-phenylchroman-3-ol], the melting point lay in the range of 130 to 131 °C.
Same read-out and setting: then `O[C@H]1Cc2ccccc2O[C@@H]1c1ccc2ccccc2c1` [3m, (2R,3S)-2-(naphthalen-2-yl)chroman-3-ol], with 141 to 142 °C; and `Cc1ccccc1[C@H]1Oc2ccccc2C[C@@H]1O` [3j, (2R,3S)-2-(o-tolyl)chroman-3-ol], with 91 to 92 °C; and `O[C@H]1Cc2ccccc2O[C@@H]1c1ccc(F)cc1` [3f, (2R,3S)-2-(4-fluorophenyl)chroman-3-ol], with 99 to 100 °C.
Same read-out and setting: the value for `COCOc1ccc2c(c1)C=C[C@H](c1ccccc1)O2` [1ab, (R)-6-(methoxymethoxy)-2-phenyl-2H-chromene] was 69 to 70 °C; that for `Cc1cccc2c1C[C@H](O)[C@@H](c1ccccc1)O2` [3q, (2R,3S)-5-methyl-2-phenylchroman-3-ol] was 116 to 117 °C; that for `Cc1cc2c(cc1C)O[C@H](c1ccccc1)[C@@H](O)C2` [3v, (2R,3S)-6,7-dimethyl-2-phenylchroman-3-ol] was 151 to 152 °C.
As for `Oc1ccc2c(c1)C=C[C@H](c1ccccc1)O2` [1ac, (R)-2-phenyl-2H-chromen-6-ol], the melting point lay within 81 to 82 °C.
Same read-out and setting: then `COc1ccc2c(c1)C[C@H](O)[C@@H](c1ccccc1)O2` [3x, (2R,3S)-6-methoxy-2-phenylchroman-3-ol], with 118 to 119 °C; and `Cc1cccc2c1O[C@H](c1ccccc1)[C@@H](O)C2` [3t, (2R,3S)-8-methyl-2-phenylchroman-3-ol], with 68 to 69 °C.
The same measure, in the same setting: the value for `Cc1cc2c(cc1Cl)C[C@H](O)[C@@H](c1ccccc1)O2` [3af, (2R,3S)-6-chloro-7-methyl-2-phenylchroman-3-ol] was 129 to 130 °C; that for `O[C@H]1Cc2ccccc2O[C@@H]1c1ccc(OCc2ccccc2)cc1` [3d, (2R,3S)-2-(4-(benzyloxy)phenyl)chroman-3-ol] was 113 to 114 °C; that for `Cc1ccc2c(c1)C[C@H](O)[C@@H](c1ccccc1)O2` [3r, (2R,3S)-6-methyl-2-phenylchroman-3-ol] was 109 to 110 °C.
Still for that read-out and setting: then `Cc1cccc([C@H]2Oc3ccccc3C[C@@H]2O)c1` [3k, (2R,3S)-2-(m-tolyl)chroman-3-ol], with 88 to 89 °C; and `COCOc1ccc2c(c1)C[C@H](O)[C@@H](c1ccccc1)O2` [3ab, (2R,3S)-6-(methoxymethoxy)-2-phenylchroman-3-ol], with 65 to 66 °C; and `COCOc1ccc([C@H]2Oc3ccccc3C[C@@H]2O)cc1` [3e, (2R,3S)-2-(4-(methoxymethoxy)phenyl)chroman-3-ol], with 97 to 98 °C.
Compound `O[C@H]1Cc2ccccc2O[C@@H]1c1ccc(Cl)cc1` [3g, (2R,3S)-2-(4-chlorophenyl)chroman-3-ol] yielded a melting point of 109 to 110 °C.
Take `Oc1ccc([C@H]2Oc3ccccc3C[C@@H]2O)cc1` [compound 5, (2R,3S)-2-(4-hydroxyphenyl)chroman-3-ol]: the melting point fell in the range of 106 to 107 °C.
On the same count and under the same terms, then `Cc1cc(C)cc([C@H]2Oc3ccccc3C[C@@H]2O)c1` [3l, (2R,3S)-2-(3,5-dimethylphenyl)chroman-3-ol], with 135 to 136 °C; and `Cc1cc(C)c2c(c1)O[C@H](c1ccccc1)[C@@H](O)C2` [3u, (2R,3S)-5,7-dimethyl-2-phenylchroman-3-ol], with 149 to 150 °C; and `COc1ccc([C@H]2Oc3ccccc3C[C@@H]2O)cc1` [3c, (2R,3S)-2-(4-methoxyphenyl)chroman-3-ol], with 89 to 90 °C.
Regarding `O[C@H]1Cc2cc(Cl)ccc2O[C@@H]1c1ccc(Cl)cc1` [3ah, (2R,3S)-6-chloro-2-(4-chlorophenyl)chroman-3-ol], the melting point fell in the range of 138 to 139 °C.
In turn, `COc1cccc2c1C[C@H](O)[C@@H](c1ccccc1)O2` [3w, (2R,3S)-5-methoxy-2-phenylchroman-3-ol] yielded a melting point of 116 to 117 °C.
Same read-out and setting: then `Oc1ccc2c(c1)C[C@H](O)[C@@H](c1ccccc1)O2` [3ac, (2R,3S)-2-phenylchromane-3,6-diol], with 187 to 188 °C; and `C1=C[C@H](c2ccc(OCc3ccccc3)cc2)Oc2ccccc21` [1d, (R)-2-(4-(benzyloxy)phenyl)-2H-chromene], with 92 to 93 °C; and `O[C@H]1Cc2ccccc2O[C@@H]1c1ccc(Br)cc1` [3h, (2R,3S)-2-(4-bromophenyl)chroman-3-ol], with 109 to 110 °C.
With `Cc1ccc2c(c1)O[C@H](c1ccccc1)[C@@H](O)C2` [3s, (2R,3S)-7-methyl-2-phenylchroman-3-ol], the melting point was 95 to 96 °C.
Take `Cc1ccc([C@H]2Oc3ccccc3C[C@@H]2O)cc1` [3b, (2R,3S)-2-(p-tolyl)chroman-3-ol]: the melting point was 68 to 69 °C.
On to `COc1cccc2c1O[C@H](c1ccccc1)[C@@H](O)C2` [3z, (2R,3S)-8-methoxy-2-phenylchroman-3-ol], for which the melting point was in the range of 151 to 152 °C.

The test system of the next data set is IL-1β. Put plainly: ELISA of IL-1β secretion from LPS-stimulated RAW 264.7 cells. Format: cell-based, mouse. The following applies: compound 50 μM 24 h, then LPS 1 μg/mL 2 h (FIG. 8). As for the experimental part: RAW 264.7 cells were pretreated with each compound (50 μM) for 24 h followed by LPS (1 μg/mL) stimulation for another 2 h. The concentrations of IL-1β in RAW 264.7 cell culture supernatants were measured by ELISA kits and the inhibition rate of compound on the secretion of each pro-inflammatory cytokine was calculated. Data from three independent experiments were expressed as means±SD. *P<0.05, **P<0.01 compared with LPS-stimulated group.
Cell culture The RAW 264.7 cell line was purchased from the Cell Bank of Shanghai Institute of Biochemistry & Cell Biology at the Chinese Academy of Sciences (Shanghai, China) and cultured in DMEM supplemented with 10% (v/v) fetal bovine serum (FBS), 100 U/ml penicillin and 100 […], in a stable environment with 5% CO2 at 37° C. Before used in the following in vitro experiments, RAW 264.7 cells were pretreated with synthesized flavan-3-ol (25, 50 μM) for 24 h followed by LPS (1 μg/mL) stimulation for another 2 h.
Enzyme-Linked Immunosorbent Assay (ELISA) RAW 264.7 cells were treated with these synthesized flavan-3-ols (25, 50 μM) for 24 h followed by LPS (1 μg/mL) stimulation for another 2 h and the culture supernatant was collected. The concentrations of IL-1β, IL-6 and TNF-α in the culture supernatant of RAW 264.7 cells were determined according to the manufacturer's instructions of the Duo-set enzyme linked immune sorbent assay kits, purchased from R&D Systems Co. Ltd. (Minneapolis, MN, USA).
The increased pro-inflammatory cytokines production in RAW 264.7 cells has been reported to play an influential role in the inflammation response. To evaluate the anti-inflammatory effects of these flavan-3-ols in vitro, ELISA kits were employed to investigate their effects on the LPS (lipopolysaccharide)-induced pro-inflammatory cytokines production of RAW 264.7 cells. After treating with the flavan-3-ols (25 and 50 μM) and stimulated by LPS, the levels of three main pro-inflammation cytokines including IL-1β ([…]), IL-6 (interleukin-6), and TNF-α (tumor necrosis factor-α) in culture supernatant from RAW 264.7 cells were measured by ELISA kits, and then the inhibition rates of the flavan-3-ols on the secretion of each pro-inflammatory cytokine were calculated by the formula shown as follows.
[formula] In this formula, “L” refers to “the pro-inflammatory cytokine level in cell culture supernatant of LPS-induced group (L)” and “Lc” refers to “the pro-inflammatory cytokine level in cell culture supernatant of compound-treated group (Lc)”. Using this calculation, the reduced levels of pro-inflammation cytokines in the compound treated group would give higher values, which reflect higher inhibition rates.
FIG. 4a-c show the effect of flavan-3-ols on pro-inflammatory cytokine secretion in vitro. RAW 264.7 cells were pretreated with each compound (25, 50 μM) for 24 h followed by LPS (1 μg/mL) stimulation for another 2 h. The concentrations of IL-1β, IL-6, TNF-α in RAW 264.7 cell culture supernatants were measured by ELISA kits and the inhibition rate of compound on the secretion of each pro-inflammatory cytokine was calculated.
For the compound `O[C@H]1Cc2cc(Cl)ccc2O[C@@H]1c1ccccc1` [3ae, (2R,3S)-6-chloro-2-phenylchroman-3-ol], the “inhibition rate of IL-1β secretion compared with enantiomer and racemic form” value is given as “higher inhibition rates than their enantiomers”.
The same measure, in the same setting: then `O[C@H]1Cc2ccccc2O[C@@H]1c1ccc2ccccc2c1` [3m, (2R,3S)-2-(naphthalen-2-yl)chroman-3-ol], with “higher inhibition rates than their enantiomers”.
Same read-out and setting: the value for `CCC[C@@H]1Oc2ccccc2C[C@H]1O` [3p′, (2S,3R)-2-propylchroman-3-ol] was “higher inhibition rate of IL-1β secretion than its racemic mixture”.
